Test results reported in patent US20110245280A1, “FRUGICIDAL MIXTURES BASED ON TRIAZOLES” (BASF AKTIENGESELLSCHAFT, priority 2002, published 2011).

Test system: mildew of wheat (Erysiphe [syn. Blumeria] graminis form a specialis tritici)
Assay: Activity against mildew of wheat, protective spray on potted wheat seedlings (cultivar Kanzler), greenhouse
Type: in vivo
Conditions: wheat leaves, 7 days after inoculation
Method: The active compounds, separately or together, were formulated as a 10% emulsion in a mixture of 63% by weight of cyclohexanone and 27% by weight of emulsifier, and diluted with water to the desired concentration.
Evaluation was carried out by determining the infected leaf areas in percent. These percentages were converted into efficacies. The efficacy (W) was calculated as follows using Abbot's formula:
[formula] • α corresponds to the fungal infection of the treated plants in % and • β corresponds to the fungal infection of the untreated (control) plants in %
An efficacy of 0 means that the infection level of the treated plants corresponds to that of the untreated control plants; an efficacy of 100 means that the treated plants were not infected.
The expected efficacies of the mixtures of the active compounds were determined using Colby's formula [R. S. Colby, Weeds 15, 20-22 (1967)] and compared with the observed efficacies.
Colby's formula: E=x+y−x·y/100 • E expected efficacy, expressed in % of the untreated control, when using the mixture of the active compounds A and B at the concentrations a and b • x efficacy, expressed in % of the untreated control, when using active compound A at a concentration of a • y efficacy, expressed in % of the untreated control, when using active compound B at a concentration of b.
Leaves of wheat seedlings of the cultivar “Kanzler” grown in pots were sprayed to run-off point with an aqueous suspension having the concentration of active compounds stated below. The suspension or emulsion was prepared from a stock solution made using 10% of active compound in a mixture comprising 70% of cyclohexanone, 20% of wetting agent and 10% of emulsifier. 24 hours after the spraycoating had dried on, the leaves dusted with spores of mildew of wheat (Erysiphe [syn. Blumeria] graminis form a specialis tritici). The test plants were then placed in a greenhouse at 20-24° C. and 60-90% relative atmospheric humidity.
After 7 days, the extent of the development of the mildew was determined visually in % infection of the entire leaf area.
The visually determined values for the percentage of diseased leaf area were converted into efficacies in % of the untreated control. An efficacy of 0 means the same disease level as in the untreated control, an efficacy of 100 means a disease level of 0%. The expected efficacies for the active compound combinations were determined using Colby's formula mentioned above and compared with the observed efficacies.

[1] = 0.06 ppm active compound in the spray liquor
[2] = 0.25 ppm active compound in the spray liquor
[3] = 1 ppm active compound in the spray liquor
[4] = 4 ppm active compound in the spray liquor

Compound | Efficacy in % of the untreated control (0.015 ppm active compound in the spray liquor) [%] | Efficacy in % of the untreated control [1] [%] | Efficacy in % of the untreated control [2] [%] | Efficacy in % of the untreated control [3] [%] | Efficacy in % of the untreated control [4] [%]
OC(Cc1ccccc1Cl)(Cn1nc[nH]c1=S)C1(Cl)CC1 (stereo not drawn) [Compound I, 2-[2-(1-chlorocyclopropyl)-3-(2-chlorophenyl)-2-hydroxypropyl]-2,4-dihydro-[1,2,4]-triazole-3-thione] | 0 | 0 | 0 | 0 | 56
Fc1ccc(C2(Cn3cncn3)OC2c2ccccc2Cl)cc1 (stereo not drawn) [Compound II, epoxiconazole] |  | 11 | 33 | 44 | 
CC1(C)CCC(Cc2ccc(Cl)cc2)C1(O)Cn1cncn1 (stereo not drawn) [Compound III, metconazole] |  |  | 11 |  | 
CCCCC(C#N)(Cn1cncn1)c1ccc(Cl)cc1 (stereo not drawn) [Compound XIII, myclobutanil] |  | 0 |  | 11 | 56
